Structures are written as SMILES. Where a name gives a salt, the structure may show the parent alone.

The target in data set [1] is T1, isolated auricle of a guinea pig (Cavia porcellus).
T1 construct: isolated auricle of a guinea pig; from tissue; host or cells: guinea pig isolated auricle (atrium)
Put plainly: pA2 measurement of beta-blocking activity on the isolated auricle of a guinea pig. The settings on record: chronotropic. The data set is classed as cell-based. The procedure: (§1) The PA2 is the co-logarithm of the concentration of antagonist in the presence of which it requires twice as much agonist as in its absence in order to achieve the same effect; see, on this subject: Calculation of the PAx, Technical Leaflet No. 16, J. Pharmacol. Paris 1971, 2, 3, 373-380. The PA2 was measured on the isolated auricle of a guinea pig and on the isolated trachea of a guinea pig. The product used by way of comparison is the following compound: [drawing 23]

The target of data set [2] is T2, isolated trachea of a guinea pig (Cavia porcellus, UniProt Q8K4Z4).
T2 construct: isolated trachea of a guinea pig; from tissue; host or cells: guinea pig isolated trachea
Put plainly: pA2 measurement of beta-blocking activity on the isolated trachea of a guinea pig. It is filed as cell-based. On the procedure:
as §1

The target of data set [3] is T3, isolated auricle of a guinea pig (Cavia porcellus, UniProt H0W3H1).
T3 construct: isolated auricle of a guinea pig; from tissue; host or cells: guinea pig isolated auricle (atrium)
Put plainly: pA2 measurement of beta-blocking activity on the isolated auricle of a guinea pig. The data set is classed as cell-based. Conditions: inotropic. On the procedure: as §1

The target in data set [4] is T4, isolated trachea of a guinea pig (Cavia porcellus).
T4 construct: isolated trachea of a guinea pig; from tissue; host or cells: guinea pig isolated trachea
Put plainly: pA2 measurement of beta-blocking activity on the isolated trachea of a guinea pig. The data set is classed as cell-based. On the procedure:
as §1

The conditions of data set [5]: prior art; cited from earlier work.

T1 sequence (H0W3H1 1-470): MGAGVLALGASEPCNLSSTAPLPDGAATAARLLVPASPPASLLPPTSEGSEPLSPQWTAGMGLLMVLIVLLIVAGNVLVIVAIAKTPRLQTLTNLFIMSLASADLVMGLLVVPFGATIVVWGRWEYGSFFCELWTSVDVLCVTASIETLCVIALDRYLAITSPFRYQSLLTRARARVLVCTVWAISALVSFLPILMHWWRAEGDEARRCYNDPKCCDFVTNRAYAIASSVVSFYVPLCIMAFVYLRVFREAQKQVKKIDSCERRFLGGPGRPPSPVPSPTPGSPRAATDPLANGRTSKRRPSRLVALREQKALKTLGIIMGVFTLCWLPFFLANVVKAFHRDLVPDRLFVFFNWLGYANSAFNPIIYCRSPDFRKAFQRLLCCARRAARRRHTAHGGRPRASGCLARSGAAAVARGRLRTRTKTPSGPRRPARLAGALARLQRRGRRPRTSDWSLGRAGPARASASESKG
T3 sequence (H0W3H1 1-470): as above
T2 sequence (Q8K4Z4 whole entry): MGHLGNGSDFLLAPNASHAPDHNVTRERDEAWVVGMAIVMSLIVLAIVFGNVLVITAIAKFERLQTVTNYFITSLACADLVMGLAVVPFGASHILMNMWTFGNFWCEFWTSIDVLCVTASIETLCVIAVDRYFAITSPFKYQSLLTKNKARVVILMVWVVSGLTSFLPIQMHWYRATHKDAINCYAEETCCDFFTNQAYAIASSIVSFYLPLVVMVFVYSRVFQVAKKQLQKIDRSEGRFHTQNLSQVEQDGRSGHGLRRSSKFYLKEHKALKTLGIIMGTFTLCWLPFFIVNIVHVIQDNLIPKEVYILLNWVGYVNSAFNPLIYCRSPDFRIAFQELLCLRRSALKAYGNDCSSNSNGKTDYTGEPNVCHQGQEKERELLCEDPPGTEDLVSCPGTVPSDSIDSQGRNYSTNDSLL
T4 sequence (Q8K4Z4 whole entry): as above

For the compound `CC(C)(C)NCC(O)COCC1CC1` (stereo not drawn) [compound 3, 1-N-tert.-Butylamino-3-cyclopropylmethoxy-propan-2-ol], the Kb in data set [1] is 79.4 nM. In data set [2], the “Trachea pA2” value was 6.23.

Take `CC(=NOCC(O)CNC(C)(C)C)C1CC1` (stereo not drawn) [Compound No. 1, 1-N-tert.-Butylamino-3-(cyclopropyl-methylketoneoximino)-propan-2-ol]: the Kb in data set [1] is 2 nM; in data set [3], 1 nM; in data set [4], 0.912 nM. As for `C=CC(C)(C)OCC(O)CNC(C)(C)C` (stereo not drawn) [Comparison, reference compound], the “Trachea pA2” value in data set [2] turned out to be 4.96. In the case of `CC(C)(C)NCC(O)CON=C(C1CC1)C1CC1` (stereo not drawn) [Compound No. 2, 1-N-tert.-Butylamino-3-(dicyclopropyl-ketoneoximino)-propan-2-ol], the Kb in data set [1] is 5.01 nM; in data set [3], 7.24 nM. With `CC(C)(C)NC[C@H](O)COc1nsnc1N1CCOCC1` [timolol maleate], the “undesirable secondary effects in treatment of glaucomas” value in data set [5] was “bronchial disorders (asthma) or cardiovascular disorders (orthostatic hypotension and slowing down of the pulse rate)”.
